# System: ATF4 luciferase reporter
# Assay: ATF4 luciferase reporter assay (Cell-luc) in HEK293T cells
# Format: cell-based, human
# Settings: ATF4-luciferase reporter
# Source text: FIGS. 1A-1C. […]
# To identify inhibitors of PERK signaling, we engineered a reporter that allows monitoring of PERK activation in living cells. To this end, we constructed a retroviral vector containing the open-reading frame of firefly luciferase fused to the 5′UTR of ATF4 mRNA (FIG. 1A), which contains two short open-reading frames (uORFs) that control ATF4 translation in a stress-dependent manner. After infection, we established a HEK293T cell line harboring the stably integrated reporter. […] This format was used to screen 106,281 compounds covering a wide chemical space. We identified 460 hits (0.43%) (FIG. 1C), which were further validated in an 8-point dose-response assay using the same reporter. We further triaged the compounds by discarding inhibitors that also affected the IRE1 branch of the UPR using an XBP1-luciferase splicing reporter. […] We next used an orthogonal secondary screen that employed a different reporter (bi-cistronic ATF4-dGFPIRES-mCherry) stably integrated into a different cell line (U20S cells). The read-out of this latter screen was microscopy-based, which allowed us to simultaneously assess acute toxicity by cell counting, further reducing the number of viable hits to 77. As a tertiary screen, we tested compounds for their ability to inhibit ER stress-elicited induction of endogenous ATF4 by Western blot analysis. Twenty-eight compounds passed this test and were analyzed further.
# ATF4 reporters were constructed by fusing the human full-length ATF4 5′-UTR (NCBI Accession BC022088.2) in front of the firefly luciferase (FLuc) or a destabilized eGFP (dEGFP) coding sequences lacking the initiator methionine.
# The ATF4-FLuc reporter was generated by cloning a PCR-product containing the ATF4 full-length 5′-UTR (from +1 position a the transcription start site down to one nucleotide after the terminator codon of the second uORF) flanked by KpnI/XhoI and BglII sites at the 5′ and 3′ ends, respectively, into the KpnI-BglII sites of pCAX-F-XBP1-Luc. The resulting construct, pCAX-ATF4-FLuc, was then digested with BamHI, blunted with T4 DNA polymerase, and then digested with XhoI. The resulting fragment was then subcloned into the retroviral expression vector pLPCX (Clontech) after digesting it with HindIII, blunting with T4 DNA polymerase and then digesting with XhoI to generate pLPCX-ATF4-FLuc (DAA-312). DAA-312 was used to produce recombinant retroviruses using standard methods and the resulting viral supernatant was used to transduce HEK293T cells, which were then subsequently selected with puromycin to generate a stable cell line employed in the primary screen.
# HEK293T cells carrying the ATF4 luciferase reporter were plated on poly-lysine coated 384 well plates (Greiner) at 30,000 cells per well. […] Luminescence was measured using One Glo (Promega) as specified by the manufacturer. […] Thus, these were considered unique to the PERK branch and were cherry-picked for further analysis.
row,SMILES,potency of trans-ISRIB relative to cis-ISRIB
1,"O=C(COc1ccc(Cl)cc1)N[C@H]1CC[C@H](NC(=O)COc2ccc(Cl)cc2)CC1 [Trans-ISRIB, 2-(4-Chlorophenoxy)-N-[(1r, 4r)-4-[2-(4-chlorophenoxy)acetamido]cyclohexyl]acetamide]",100 fold

# Same assay, conditions: ATF4 luciferase reporter, HEK293T cells; read-out: IC50 (nM) Cell-luc
row,SMILES,IC50
1,C#CCN(C(=O)COc1ccc(Cl)cc1)[C@H]1CC[C@H](NC(=O)COc2ccc(Cl)cc2)CC1 [755854.1],2700 nM
2,C#CCN(C(=O)COc1ccc(Cl)cc1)[C@H]1CC[C@H](NC(=O)COc2ccc(Cl)cc2)CC1 [755854.2],440 nM
3,C#CCN(C(=O)COc1ccc(Cl)cc1)[C@H]1CC[C@H](NC(=O)COc2ccc(Cl)cc2)CC1 [755854.3],100 nM
4,C#CCN(C(=O)COc1ccc(Cl)cc1)[C@H]1CC[C@H](NC(=O)COc2ccc(Cl)cc2)CC1 [755854.4],64 nM
5,N=C(COc1ccc(Cl)cc1)N[C@H]1CC[C@H](NC(=O)COc2ccc(Cl)cc2)CC1 [757264-L3],60 nM
6,N=C(COc1ccc(Cl)cc1)N[C@H]1CC[C@H](NC(=O)COc2ccc(Cl)cc2)CC1 [757264.1],100 nM
7,N=C(COc1ccc(Cl)cc1)N[C@H]1CC[C@H](NC(=O)COc2ccc(Cl)cc2)CC1 [757264.2],34 nM
8,O=C(COc1ccc([N+](=O)[O-])cc1)N[C@H]1CC[C@H](NC(=O)COc2ccc([N+](=O)[O-])cc2)CC1 [compound 757130],> 10000 nM
9,O=C(COc1ccc(Cl)cc1)N[C@H]1CC[C@H](NC(=O)COc2ccc(Cl)cc2[N+](=O)[O-])CC1 [compound 843987],75 nM

# Same assay, conditions: Homo sapiens, HEK-293T, ATF4 luciferase reporter, HEK293T cells; read-out: IC50 (nM) Cell-luc
row,SMILES,IC50
1,Cc1ccc(CC(=O)N[C@H]2CC[C@H](NC(=O)COc3ccc(Cl)cc3)CC2)cc1 [compound 751595],> 10000 nM
2,O=C(COc1ccc(Cl)cc1)N[C@H]1CC[C@H](NC(=O)c2ccc(Cl)cc2)CC1 [compound 751596],> 10000 nM
3,O=C(COc1ccc(O)cc1)N[C@H]1CC[C@H](NC(=O)COc2ccc(Cl)cc2)CC1 [compound 751597],> 10000 nM
4,COc1ccc(OCC(=O)N[C@H]2CC[C@H](NC(=O)COc3ccc(OC)cc3)CC2)cc1 [compound 754123],> 10000 nM
5,O=C(COc1ccc(Cl)cc1)N[C@H]1CC[C@@H](NC(=O)COc2ccc(Cl)cc2Cl)CC1 [compound 754124],> 10000 nM
6,O=C(CCc1ccc(Cl)cc1)N[C@H]1CC[C@H](NC(=O)CCc2ccc(Cl)cc2)CC1 [compound 754125],> 10000 nM
7,N#Cc1ccc(OCC(=O)N[C@H]2CC[C@H](NC(=O)COc3ccc(C#N)cc3)CC2)cc1 [compound 757095],> 10000 nM
8,C[S+]([O-])c1ccc(OCC(=O)N[C@H]2CC[C@H](NC(=O)COc3ccc([S+](C)[O-])cc3)CC2)cc1 (stereo partly shown) [compound 757096],> 10000 nM
9,C[S+]([O-])c1ccc(OCC(=O)N[C@H]2CC[C@H](NC(=O)COc3ccc(Cl)cc3)CC2)cc1 (stereo partly shown) [compound 757260],> 10000 nM
10,O=C(COc1ccc(Cl)cc1)N[C@H]1CC[C@H](NC(=O)CSc2ccc(Cl)cc2)CC1 [compound 757261],> 10000 nM
11,O=C(COc1ccc(Cl)cc1)N[C@H]1CC[C@H](NC(=O)C[S+]([O-])c2ccc(Cl)cc2)CC1 (stereo partly shown) [compound 757262],> 10000 nM
12,O=C(COc1ccc(Cl)cc1)N[C@H]1CC[C@H](NC(=O)CS(=O)(=O)c2ccc(Cl)cc2)CC1 [compound 757263],> 10000 nM
13,O=C(COc1ccc(Cl)cc1)N[C@H]1CC[C@H](NC(=O)CSc2ccccc2)CC1 [compound 811769],> 10000 nM
14,O=C(COc1ccc(Cl)cc1)N[C@H]1C[C@H](NC(=O)CSc2ccc(Cl)cc2)C1 [compound 811771],> 10000 nM
15,O=C(COc1ccc(Cl)cc1)N[C@H]1C[C@H](NC(=O)CSc2ccc(F)cc2)C1 [compound 811772],> 10000 nM
16,O=C(COc1ccc(Cl)cc1)N[C@H]1C[C@H](NC(=O)CSc2ccccc2)C1 [compound 811773],> 10000 nM
17,N=C(COc1ccc(Cl)cc1)N[C@H]1CC[C@H](N(Cc2cn(CCOCCOCCOCCNC(=O)CCCC[C@@H]3SCC4NC(=O)NC43)nn2)C(=O)COc2ccc(Cl)cc2)CC1 (stereo partly shown) [compound 835197],> 10000 nM
18,CC(=O)c1ccc(OCC(=O)N[C@H]2CC[C@H](NC(=O)COc3ccc(Cl)cc3)CC2)cc1 [compound 843983],> 10000 nM
19,O=C(COc1ccc(Cl)cc1)NCc1cccc(NC(=O)COc2ccc(Cl)cc2)c1 [compound 873882],> 10000 nM

# The remaining lines, values ahead:
row,IC50,SMILES
1,3 nM,O=C(COc1ccc(Cl)cc1)N[C@H]1CC[C@H](NC(=O)COc2ccc(Cl)cc2)CC1 [750213.2]
2,53 nM,O=C(COc1ccc(Cl)cc1)Nc1ccc(NC(=O)COc2ccc(Cl)cc2)cc1 [compound 102509]
3,250 nM,COc1ccc(OCC(=O)N[C@H]2CC[C@H](NC(=O)COc3ccc(Cl)cc3)CC2)cc1 [compound 751591]
4,> 10000 nM,O=C(COc1ccc(Cl)cc1)N[C@H]1CC[C@H](NC(=O)COc2ccc(OCc3ccccc3)cc2)CC1 [compound 751592]
5,384 nM,O=C(COc1ccccc1)N[C@H]1CC[C@H](NC(=O)COc2ccc(Cl)cc2)CC1 [compound 751593]
6,69 nM,O=C(COc1ccc(Cl)cc1)N[C@H]1CC[C@H](NC(=O)COc2ccc(Cl)cc2Cl)CC1 [compound 751594]
7,327 nM,Cc1ccc(OCC(=O)N[C@H]2CC[C@H](NC(=O)COc3ccc(C)cc3)CC2)cc1 [compound 754126]
8,13 nM,O=C(COc1ccc(C(F)(F)F)cc1)N[C@H]1CC[C@H](NC(=O)COc2ccc(C(F)(F)F)cc2)CC1 [compound 754127]
9,95 nM,Cc1ccc(OCC(=O)N[C@H]2CC[C@H](NC(=O)COc3ccc(Cl)cc3)CC2)cc1 [compound 754128]
10,142 nM,O=C(COc1ccc(Cl)cc1)N[C@H]1C[C@H](NC(=O)COc2ccc(Cl)cc2)C1 [compound 755855]
11,1000 nM,O=C(COc1ccc(Cl)cc1)N[C@H]1C[C@@H](NC(=O)COc2ccc(Cl)cc2)C1 [compound 755856]
12,270 nM,O=C(COc1ccc(F)cc1)N[C@H]1CC[C@H](NC(=O)COc2ccc(F)cc2)CC1 [compound 757131]
13,3000 nM,C#C[C@]1(NC(=O)COc2ccc(Cl)cc2)CC[C@@H](NC(=O)COc2ccc(Cl)cc2)CC1 [compound 757132]
14,37 nM,C#C[C@]1(NC(=O)COc2ccc(Cl)cc2)CC[C@H](NC(=O)COc2ccc(Cl)cc2)CC1 [compound 757149]
15,48 nM,O=C(COc1ccc(F)cc1)N[C@H]1CC[C@H](NC(=O)COc2ccc(Cl)cc2)CC1 [compound 757257]
16,10 nM,O=C(COc1ccc(Cl)cc1)N[C@H]1CC[C@H](NC(=O)COc2ccc(C(F)(F)F)cc2)CC1 [compound 757258]
17,263 nM,N#Cc1ccc(OCC(=O)N[C@H]2CC[C@H](NC(=O)COc3ccc(Cl)cc3)CC2)cc1 [compound 757259]
18,900 nM,O=C(COc1ccc(Cl)cc1)N[C@H]1CC[C@H](NC(=O)CSc2ccc(F)cc2)CC1 [compound 811770]
19,2700 nM,O=C(CCCC[C@H]1SCC2NC(=O)NC21)NCCOCCOCCOCCn1cc([C@]2(NC(=O)COc3ccc(Cl)cc3)CC[C@H](NC(=O)COc3ccc(Cl)cc3)CC2)nn1 (stereo partly shown) [compound 835087]
20,700 nM,O=C(CNc1ccc(Cl)cc1)N[C@H]1CC[C@H](NC(=O)COc2ccc(Cl)cc2)CC1 [compound 835089]
21,170 nM,O=C(COc1ccc(Cl)cc1)N[C@H]1CC[C@H](NCCOc2ccc(Cl)cc2)CC1 [compound 835195]
22,1400 nM,O=C(COc1ccc(Cl)cc1)N[C@H]1CC[C@H](N(CCOc2ccc(Cl)cc2)CCOc2ccc(Cl)cc2)CC1 [compound 835196]
23,1000 nM,CC(=O)c1cccc(OCC(=O)N[C@H]2CC[C@H](NC(=O)COc3ccc(Cl)cc3)CC2)c1 [compound 843984]
24,2600 nM,C[C@@H]1NC(=O)N[C@@H]1CCCCCC(=O)NCCOCCOCCOCCn1cc([C@]2(NC(=O)COc3ccc(Cl)cc3)CC[C@H](NC(=O)COc3ccc(Cl)cc3)CC2)nn1 [compound 873883]

# Same assay, conditions: cultured HEK293T cells; 2 μg/ml tunicamycin, 7 h; synthesized isomers; read-out: IC50, inhibition of the ATF4-luciferase reporter
row,SMILES,IC50
1,"O=C(COc1ccc(Cl)cc1)N[C@H]1CC[C@H](NC(=O)COc2ccc(Cl)cc2)CC1 [Trans-ISRIB, 2-(4-Chlorophenoxy)-N-[(1r, 4r)-4-[2-(4-chlorophenoxy)acetamido]cyclohexyl]acetamide]",5 nM
2,"O=C(COc1ccc(Cl)cc1)N[C@H]1CC[C@@H](NC(=O)COc2ccc(Cl)cc2)CC1 [cis-ISRIB, 2-(4-chlorophenoxy)-N-[(1s, 4s)-4-[2-(4-chlorophenoxy)acetamido]cyclohexyl]acetamide]",600 nM
